Results published in PubChem BioAssay AID328 (DTP/NCI, 2004).
Values joined by “and” are separate entries in the source; they are usually repeats but may differ in a detail not shown here. Equal values may be shown once. Inconclusive results and toxic doses are left out. The calls were made as follows: active = survival T/C of 150% or more; inactive = T/C below 125% in these data.

System: BDF1 mice, P388 leukemia ip, median survival T/C
Test: NCI In Vivo Anticancer Drug Screen. Data for tumor model P388 Leukemia (intraperitoneal) in B6D2F1 (BDF1) mice
Details: endpoint: median survival time, higher = longer survival
Summary of the method: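 Antitumour effect was judged in vivo: survival in drug-treated mice, normalised to that of vehicle-dosed controls, gives the reported T/C.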

[1] = dose: 100.0 mg/kg/injection, schedule: Q01DX009 (ip), vehicle: Klucel (hydroxypropylcellulose) (HPC)
[2] = dose: 100.0 mg/kg/injection, schedule: Q04DX003 (ip), vehicle: Klucel (hydroxypropylcellulose) (HPC)
[3] = dose: 200.0 mg/kg/injection, schedule: Q01DX009 (ip), vehicle: Klucel (hydroxypropylcellulose) (HPC)
[4] = dose: 200.0 mg/kg/injection, schedule: Q04DX003 (ip), vehicle: Klucel (hydroxypropylcellulose) (HPC)
[5] = dose: 400.0 mg/kg/injection, schedule: Q01DX009 (ip), vehicle: Klucel (hydroxypropylcellulose) (HPC)
[6] = dose: 400.0 mg/kg/injection, schedule: Q04DX003 (ip), vehicle: Klucel (hydroxypropylcellulose) (HPC)
[7] = dose: 50.0 mg/kg/injection, schedule: Q04DX003 (ip), vehicle: saline with Tween-80
[8] = dose: 100.0 mg/kg/injection, schedule: Q04DX003 (ip), vehicle: saline with Tween-80
[9] = dose: 200.0 mg/kg/injection, schedule: Q04DX003 (ip), vehicle: saline with Tween-80
[10] = dose: 12.5 mg/kg/injection, schedule: Q01DX009 (ip), vehicle: Klucel (hydroxypropylcellulose) (HPC)
[11] = dose: 25.0 mg/kg/injection, schedule: Q01DX009 (ip), vehicle: Klucel (hydroxypropylcellulose) (HPC)
[12] = dose: 25.0 mg/kg/injection, schedule: Q01DX009 (ip), vehicle: saline with Tween-80
[13] = dose: 50.0 mg/kg/injection, schedule: Q01DX009 (ip), vehicle: saline with Tween-80
[14] = dose: 100.0 mg/kg/injection, schedule: Q01DX009 (ip), vehicle: saline with Tween-80
[15] = dose: 200.0 mg/kg/injection, schedule: Q01DX009 (ip), vehicle: saline with Tween-80

Measured: T/C

COc1cc(O)c2c(c1)OC(c1ccc(OC)c(O)c1)CC2=O (configuration not stated)
inactive: dose: 12.5 mg/kg/injection, schedule: Q01DX009 (ip), vehicle: alcohol 117 % of control | dose: 50.0 mg/kg/injection, schedule: Q01DX009 (ip), vehicle: alcohol 109 % of control | dose: 100.0 mg/kg/injection, schedule: Q01DX009 (ip), vehicle: alcohol 92 % of control

O=S(=O)(O)O.[NH-]CC(N)=O.[NH-]CC(N)=O.[Ni+2]
inactive: dose: 6.25 mg/kg/injection, schedule: Q01DX009 (ip), vehicle: water 115 % of control | dose: 12.5 mg/kg/injection, schedule: Q01DX009 (ip), vehicle: water 110 % of control | dose: 12.5 mg/kg/injection, schedule: Q04DX003 (ip), vehicle: water 100 % of control | dose: 25.0 mg/kg/injection, schedule: Q04DX003 (ip), vehicle: water 90 % of control | dose: 50.0 mg/kg/injection, schedule: Q04DX003 (ip), vehicle: water 109 % of control

N/C(=N\N=C\c1ccc(-c2ccccc2)cc1)N[N+](=O)[O-]
inactive: dose: 25.0 mg/kg/injection, schedule: Q01DX010 (ip), vehicle: carboxymethylcellulose (CMC) 100 % of control | dose: 50.0 mg/kg/injection, schedule: Q01DX010 (ip), vehicle: carboxymethylcellulose (CMC) 100 % of control | dose: 100.0 mg/kg/injection, schedule: Q01DX010 (ip), vehicle: carboxymethylcellulose (CMC) 100 % of control | dose: 200.0 mg/kg/injection, schedule: Q01DX010 (ip), vehicle: carboxymethylcellulose (CMC) 100 % of control

CC(C)(CC(=O)O)CC(=O)OCC(=O)[C@@]1(O)CC[C@H]2[C@@H]3CCC4=CC(=O)C=C[C@]4(C)[C@H]3[C@@H](O)C[C@@]21C
inactive: dose: 100.0 mg/kg/injection, schedule: Q01DX009 (ip), vehicle: steriod suspending solution 100 % of control | dose: 100.0 mg/kg/injection, schedule: Q01DX009 (sc), vehicle: steriod suspending solution 120 % of control | dose: 100.0 mg/kg/injection, schedule: Q04DX003 (sc), vehicle: steriod suspending solution 108 % of control | dose: 200.0 mg/kg/injection, schedule: Q01DX009 (ip), vehicle: steriod suspending solution 90 % of control | dose: 200.0 mg/kg/injection, schedule: Q01DX009 (sc), vehicle: steriod suspending solution 120 % of control and 122 % of control | dose: 200.0 mg/kg/injection, schedule: Q04DX003 (sc), vehicle: steriod suspending solution 100 % of control | dose: 400.0 mg/kg/injection, schedule: Q01DX009 (ip), vehicle: steriod suspending solution 90 % of control | dose: 400.0 mg/kg/injection, schedule: Q01DX009 (sc), vehicle: steriod suspending solution 110 % of control | dose: 400.0 mg/kg/injection, schedule: Q04DX003 (sc), vehicle: steriod suspending solution 104 % of control

Cc1ccc(C(c2ccc(C)cc2)C(Cl)(Cl)Cl)cc1
inactive: dose: 100.0 mg/kg/injection, schedule: Q01DX001 (ip), vehicle: saline sonified 100 % of control | dose: 200.0 mg/kg/injection, schedule: Q01DX001 (ip), vehicle: saline sonified 100 % of control | dose: 400.0 mg/kg/injection, schedule: Q01DX001 (ip), vehicle: saline sonified 90 % of control

N#Cc1c(F)c(F)c(C#N)c(F)c1F
inactive: dose: 1.25 mg/kg/injection, schedule: Q01DX009 (ip), vehicle: Klucel (hydroxypropylcellulose) (HPC) 100 % of control | dose: 2.5 mg/kg/injection, schedule: Q01DX009 (ip), vehicle: Klucel (hydroxypropylcellulose) (HPC) 104 % of control | dose: 5.0 mg/kg/injection, schedule: Q01DX009 (ip), vehicle: Klucel (hydroxypropylcellulose) (HPC) 108 % of control | dose: 10.0 mg/kg/injection, schedule: Q01DX009 (ip), vehicle: Klucel (hydroxypropylcellulose) (HPC) 104 % of control

CC(C)NCC(O)COc1ccc2ncsc2c1 (configuration not stated)
inactive: dose: 50.0 mg/kg/injection, schedule: Q01DX009 (ip), vehicle: saline 108 % of control | dose: 100.0 mg/kg/injection, schedule: Q01DX009 (ip), vehicle: saline 110 % of control | dose: 200.0 mg/kg/injection, schedule: Q01DX009 (ip), vehicle: saline 91 % of control

O=NN(CCF)C(=O)NC1CCS(=O)(=O)CC1
inactive: dose: 0.15 mg/kg/injection, schedule: Q04DX003 (ip), vehicle: saline 115 % of control | dose: 0.3 mg/kg/injection, schedule: Q04DX003 (ip), vehicle: saline 120 % of control

O=[N+]([O-])c1ccc(SNc2ccc(O)cc2)cc1[N+](=O)[O-]
inactive: [1] 100 % of control | [2] 100 % of control | [3] 90 % of control | [4] 104 % of control | [5] 109 % of control | [6] 104 % of control

C[C@]12CC[C@H]3[C@@H](CC[C@H]4N(CCCl)CCC[C@]34C)[C@@H]1CC[C@@H]2O
inactive: dose: 12.5 mg/kg/injection, schedule: Q01DX001 (ip), vehicle: saline 105 % of control | dose: 25.0 mg/kg/injection, schedule: Q01DX001 (ip), vehicle: saline 109 % of control

c1ccc(CSc2ncnc3nc[nH]c23)nc1
inactive: dose: 50.0 mg/kg/injection, schedule: Q01DX009 (ip), vehicle: saline sonified 100 % of control | [7] 105 % of control | dose: 100.0 mg/kg/injection, schedule: Q01DX009 (ip), vehicle: saline sonified 111 % of control | [8] 100 % of control | [9] 100 % of control

C1CNCC[N-]1.C1CNCC[N-]1.[Cl][Pt+2]([Cl])([Cl])[Cl]
inactive: dose: 3.12 mg/kg/injection, schedule: Q04DX003 (ip), vehicle: saline 106 % of control and 115 % of control | dose: 6.25 mg/kg/injection, schedule: Q01DX009 (ip), vehicle: saline 106 % of control | dose: 6.25 mg/kg/injection, schedule: Q04DX003 (ip), vehicle: saline 100 % of control and 115 % of control | [10] 108 % of control | dose: 12.5 mg/kg/injection, schedule: Q04DX003 (ip), vehicle: saline 93 % of control and 98 % of control and 100 % of control | [11] 120 % of control | dose: 25.0 mg/kg/injection, schedule: Q04DX003 (ip), vehicle: saline 108 % of control

CCCCCCC1CCC(N)CC1 (configuration not stated)
inactive: [10] 97 % of control | [11] 101 % of control

CC1=CC2=NC(=O)C(c3ccccc3)C(=O)N2C=C1 (configuration not stated)
inactive: [11] 100 % of control | dose: 25.0 mg/kg/injection, schedule: Q04DX003 (ip), vehicle: Klucel (hydroxypropylcellulose) (HPC) 100 % of control | dose: 50.0 mg/kg/injection, schedule: Q01DX009 (ip), vehicle: Klucel (hydroxypropylcellulose) (HPC) 105 % of control | dose: 50.0 mg/kg/injection, schedule: Q04DX003 (ip), vehicle: Klucel (hydroxypropylcellulose) (HPC) 100 % of control | [1] 115 % of control | [2] 100 % of control | [6] 88 % of control

C=CCN1CSC(=S)N(CC=C)C1
inactive: [12] 100 % of control | [13] 87 % of control

C=CC(C)(O)CCC1C(=C)CCC2C(C)(C)CCCC12C (configuration not stated)
inactive: [1] 90 % of control | [2] 95 % of control | [3] 86 % of control | [4] 100 % of control | [5] 95 % of control | [6] 95 % of control

CC(=O)Nc1nc(Cl)c([N+](=O)[O-])c(SCc2ccccc2)n1
inactive: dose: 12.5 mg/kg/injection, schedule: Q01DX009 (ip), vehicle: saline with Tween-80 94 % of control | [12] 98 % of control | dose: 25.0 mg/kg/injection, schedule: Q04DX003 (ip), vehicle: saline with Tween-80 116 % of control | [13] 107 % of control | [7] 114 % of control | [14] 96 % of control | [8] 114 % of control | [9] 96 % of control

CC1(C(=O)O)CCC(C(=O)Nc2ccccc2)C1(C)C (configuration not stated)
inactive: [14] 92 % of control | [8] 100 % of control | [15] 92 % of control | [9] 90 % of control | dose: 400.0 mg/kg/injection, schedule: Q01DX009 (ip), vehicle: saline with Tween-80 92 % of control | dose: 400.0 mg/kg/injection, schedule: Q04DX003 (ip), vehicle: saline with Tween-80 104 % of control

CN1C(=O)C(=Cc2ccc(N(C)C)cc2)C(=O)N(C)C1=O
inactive: [13] 103 % of control | [14] 99 % of control | [15] 98 % of control
